Source: ChEMBL document CHEMBL1201862, “PubChem BioAssay data set” (2004)
Calls of active or inactive are those of the source.

Legend:
Caspase-8 = Caspase-8 (Homo sapiens, UniProt Q14790); experiment: caspase-8 inhibition counter-screen, dose response, selectivity assay for caspase-6 inhibitor project, biochemical, Z-IETD-R110 fluorescence, cherry-picked samples (AID 743294)
HEK293 [1] = experiment: cells; assay type: functional, cell-based; conditions: Homo sapiens
[2] = target: T1, Low molecular weight phosphotyrosine protein phosphatase (Homo sapiens, UniProt P24666); assay type: functional; conditions: read-out: IC50_Mean
T1 sequence (P24666 whole entry): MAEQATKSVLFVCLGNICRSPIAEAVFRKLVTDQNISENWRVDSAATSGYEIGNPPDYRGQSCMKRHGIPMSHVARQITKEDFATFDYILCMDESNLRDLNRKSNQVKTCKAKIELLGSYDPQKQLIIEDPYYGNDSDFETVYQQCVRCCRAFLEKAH

HEK293 [3] = experiment: NOD2 signaling inhibitors in MDP-stimulated cells, cell-based, uHTS, luminescence (AID 2001); assay type: functional; conditions: Homo sapiens
[4] = target: T2, Small ubiquitin-related modifier 1 (Homo sapiens, UniProt P63165); experiment: inhibitors of SUMO1 peptide binding, dose response, biochemical, fluorescence polarization, uHTS hits (AID 624382); assay type: functional; conditions: read-out: IC50_Mean
T2 sequence (P63165 whole entry): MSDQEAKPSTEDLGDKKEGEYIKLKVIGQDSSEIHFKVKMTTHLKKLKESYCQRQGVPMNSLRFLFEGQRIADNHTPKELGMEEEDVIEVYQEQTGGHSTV

HEK293 [5] = experiment: NOD1 signaling inhibitors, primary screen, cell-based, luminescence, uHTS (AID 1578); assay type: functional; conditions: Homo sapiens
[6] = target: T3, Carboxy-terminal domain RNA polymerase II polypeptide A small phosphatase 1 (Homo sapiens, UniProt Q9GZU7); experiment: inhibitors of CTDSP1, concentration-response testing, biochemical assay, absorbance-based, actives from ultra-high-throughput screening (AID 540297); assay type: functional
T3 sequence (Q9GZU7 whole entry): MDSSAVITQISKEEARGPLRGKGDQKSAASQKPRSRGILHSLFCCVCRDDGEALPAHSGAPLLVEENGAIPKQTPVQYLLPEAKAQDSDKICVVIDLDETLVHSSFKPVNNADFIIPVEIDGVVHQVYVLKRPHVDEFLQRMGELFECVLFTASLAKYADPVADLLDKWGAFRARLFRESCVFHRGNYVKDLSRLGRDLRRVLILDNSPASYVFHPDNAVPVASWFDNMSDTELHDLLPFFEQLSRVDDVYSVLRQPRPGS

[7] = target: T1, Low molecular weight phosphotyrosine protein phosphatase; assay type: functional; conditions: read-out: IC50_Mean; remark: listed apart in the source
Caspase-6 = target: T4, Caspase-6 (Homo sapiens, UniProt P55212); experiment: human caspase-6 inhibitors, dose response, biochemical, VEID-R110 fluorescence, cherry-pick (AID 720632)
T4 sequence (P55212 whole entry): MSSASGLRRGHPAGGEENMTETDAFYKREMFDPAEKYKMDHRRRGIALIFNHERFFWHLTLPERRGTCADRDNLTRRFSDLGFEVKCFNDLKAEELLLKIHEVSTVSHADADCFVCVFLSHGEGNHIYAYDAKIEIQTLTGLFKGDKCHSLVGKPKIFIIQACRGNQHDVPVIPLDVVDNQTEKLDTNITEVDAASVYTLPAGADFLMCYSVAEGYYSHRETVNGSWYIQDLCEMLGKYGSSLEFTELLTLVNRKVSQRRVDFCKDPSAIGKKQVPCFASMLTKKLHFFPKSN

[8] = target: T2, Small ubiquitin-related modifier 1; experiment: inhibitors of SUMO1 partner interactions, dose response, biochemical, FRET (AID 624383); assay type: functional; conditions: read-out: IC50_Mean
HEK293 [9] = experiment: cells; assay type: functional, cell-based; conditions: Homo sapiens; remark: listed apart in the source
[10] = target: T5, Tyrosine-protein phosphatase non-receptor type 11 (Homo sapiens, UniProt Q06124); experiment: SHP2 phosphatase inhibition, dose response, selectivity assay for STEP inhibitor project, biochemical (AID 602367); assay type: functional; conditions: read-out: IC50_Mean
T5 sequence (Q06124 whole entry): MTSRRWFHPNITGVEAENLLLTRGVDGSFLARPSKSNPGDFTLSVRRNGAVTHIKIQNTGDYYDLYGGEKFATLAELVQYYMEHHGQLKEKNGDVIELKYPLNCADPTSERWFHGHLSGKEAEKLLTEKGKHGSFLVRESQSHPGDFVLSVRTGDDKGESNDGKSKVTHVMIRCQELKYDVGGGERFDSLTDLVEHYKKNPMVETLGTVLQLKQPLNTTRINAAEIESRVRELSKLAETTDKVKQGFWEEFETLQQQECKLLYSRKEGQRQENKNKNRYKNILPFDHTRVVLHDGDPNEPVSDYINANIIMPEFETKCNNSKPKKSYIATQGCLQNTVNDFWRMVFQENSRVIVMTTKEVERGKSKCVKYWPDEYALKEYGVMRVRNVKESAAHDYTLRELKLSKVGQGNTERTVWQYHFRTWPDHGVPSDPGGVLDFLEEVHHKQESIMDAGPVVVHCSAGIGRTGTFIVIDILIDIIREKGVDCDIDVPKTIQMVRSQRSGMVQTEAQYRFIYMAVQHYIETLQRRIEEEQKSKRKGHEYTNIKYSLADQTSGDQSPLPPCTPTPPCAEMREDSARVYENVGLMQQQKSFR

[11] = target: T6, Tyrosine-protein phosphatase non-receptor type 5 (Homo sapiens, UniProt P54829); experiment: STEP phosphatase inhibitors, confirmation, biochemical, fluorescence intensity, uHTS hits (AID 602372); assay type: functional; conditions: read-out: IC50_Mean
T6 sequence (P54829 whole entry): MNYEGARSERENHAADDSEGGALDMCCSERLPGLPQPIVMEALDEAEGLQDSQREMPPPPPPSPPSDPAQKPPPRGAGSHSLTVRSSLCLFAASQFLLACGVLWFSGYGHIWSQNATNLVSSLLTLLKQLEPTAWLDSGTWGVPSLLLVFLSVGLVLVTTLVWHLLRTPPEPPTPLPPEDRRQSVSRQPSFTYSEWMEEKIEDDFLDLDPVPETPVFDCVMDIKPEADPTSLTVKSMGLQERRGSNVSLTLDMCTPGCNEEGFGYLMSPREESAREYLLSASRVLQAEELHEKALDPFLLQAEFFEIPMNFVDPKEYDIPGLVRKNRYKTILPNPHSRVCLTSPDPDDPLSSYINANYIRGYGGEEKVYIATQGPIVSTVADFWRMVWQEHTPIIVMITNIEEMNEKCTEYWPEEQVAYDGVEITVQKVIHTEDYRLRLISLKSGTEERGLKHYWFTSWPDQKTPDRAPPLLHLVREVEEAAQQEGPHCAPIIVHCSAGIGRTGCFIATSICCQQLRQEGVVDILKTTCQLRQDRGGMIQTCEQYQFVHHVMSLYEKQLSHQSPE

[12] = target: Nucleotide-binding oligomerization domain-containing protein 2 (Homo sapiens, UniProt Q9HC29); experiment: NOD2 signaling inhibitors, cell-based, luminescence, uHTS, HEK293 (AID 1566); assay type: functional
Nucleotide-binding oligomerization domain-containing protein 2, sequence (Q9HC29 whole entry, the tested form may be a part): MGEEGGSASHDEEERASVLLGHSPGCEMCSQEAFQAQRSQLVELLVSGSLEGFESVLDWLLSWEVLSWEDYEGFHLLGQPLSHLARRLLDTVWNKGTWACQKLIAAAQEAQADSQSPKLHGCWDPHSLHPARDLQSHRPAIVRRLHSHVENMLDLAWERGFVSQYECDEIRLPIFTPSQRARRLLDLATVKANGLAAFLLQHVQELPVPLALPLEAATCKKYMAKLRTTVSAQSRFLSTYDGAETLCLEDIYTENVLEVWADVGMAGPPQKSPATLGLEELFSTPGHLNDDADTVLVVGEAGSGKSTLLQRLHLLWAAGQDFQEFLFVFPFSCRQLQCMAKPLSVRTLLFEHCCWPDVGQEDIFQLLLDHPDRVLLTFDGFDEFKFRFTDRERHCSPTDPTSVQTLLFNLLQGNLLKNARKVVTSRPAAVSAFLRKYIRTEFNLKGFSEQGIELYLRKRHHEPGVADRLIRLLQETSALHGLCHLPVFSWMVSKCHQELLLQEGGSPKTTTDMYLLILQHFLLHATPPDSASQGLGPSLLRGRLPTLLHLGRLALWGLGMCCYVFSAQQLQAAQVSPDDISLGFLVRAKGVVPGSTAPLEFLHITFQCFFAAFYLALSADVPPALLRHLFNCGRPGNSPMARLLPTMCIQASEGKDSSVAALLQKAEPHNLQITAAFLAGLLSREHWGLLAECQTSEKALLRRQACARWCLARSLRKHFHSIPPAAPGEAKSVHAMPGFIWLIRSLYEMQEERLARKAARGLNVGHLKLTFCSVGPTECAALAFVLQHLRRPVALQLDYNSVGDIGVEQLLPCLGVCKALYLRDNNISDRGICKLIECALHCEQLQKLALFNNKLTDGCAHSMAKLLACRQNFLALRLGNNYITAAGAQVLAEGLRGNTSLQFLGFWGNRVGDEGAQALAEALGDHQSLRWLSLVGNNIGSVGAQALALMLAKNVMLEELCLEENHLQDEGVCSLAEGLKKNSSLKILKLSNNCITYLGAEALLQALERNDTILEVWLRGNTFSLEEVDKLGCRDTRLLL

[13] = target: Dual specificity protein phosphatase 3 (Homo sapiens, UniProt P51452); experiment: VHR phosphatase inhibition, dose response, selectivity assay for STEP inhibitor project, biochemical (AID 602374); assay type: functional; conditions: read-out: IC50_Mean
Dual specificity protein phosphatase 3, sequence (P51452 whole entry): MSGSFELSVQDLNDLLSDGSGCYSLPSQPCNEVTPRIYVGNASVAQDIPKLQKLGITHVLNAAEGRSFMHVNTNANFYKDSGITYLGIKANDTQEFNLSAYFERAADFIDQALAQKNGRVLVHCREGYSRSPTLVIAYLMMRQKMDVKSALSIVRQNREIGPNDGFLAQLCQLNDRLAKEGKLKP

[14] = target: T7, Probable nicotinate-nucleotide adenylyltransferase (Staphylococcus aureus (strain N315), UniProt P65502); assay type: functional, Staphylococcus aureus subsp. aureus N315; conditions: read-out: IC50_Mean;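 for IC50 Mean: confirmatory dose-response retesting of NadD inhibitor hits first found in an ultra-high-throughput screen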
T7 sequence (P65502 whole entry): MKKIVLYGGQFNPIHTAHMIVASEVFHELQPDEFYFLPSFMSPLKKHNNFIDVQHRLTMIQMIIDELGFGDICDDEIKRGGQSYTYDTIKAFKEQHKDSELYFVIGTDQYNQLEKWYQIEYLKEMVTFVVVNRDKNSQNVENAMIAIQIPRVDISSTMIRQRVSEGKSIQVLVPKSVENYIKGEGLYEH

[15] = target: T7, Probable nicotinate-nucleotide adenylyltransferase; assay type: functional, Staphylococcus aureus subsp. aureus N315

Caspase-8, sequence (Q14790 217-374 limits assumed): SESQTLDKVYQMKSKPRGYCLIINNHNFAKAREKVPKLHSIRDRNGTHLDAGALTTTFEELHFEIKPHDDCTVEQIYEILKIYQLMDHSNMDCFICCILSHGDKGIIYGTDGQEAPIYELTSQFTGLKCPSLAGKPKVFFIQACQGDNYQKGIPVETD
Caspase-8, sequence (Q14790 385-479 limits assumed): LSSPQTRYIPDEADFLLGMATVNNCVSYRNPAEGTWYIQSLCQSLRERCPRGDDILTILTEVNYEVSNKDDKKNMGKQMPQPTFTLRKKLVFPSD

For Cc1c(CCC(=O)O)c(=O)oc2c(C)c(OCc3ccccc3Cl)ccc12, the AC50 (Caspase-8) was > 70 µM (inactive), the IC50 (HEK293 [1]) was 9.68 µM (active) and the IC50 [2] was 4.25 µM (active). The IC50 (HEK293 [3]) was > 20 µM (inactive), the IC50 [4] was > 66.6 µM (inactive) and the EC50 (HEK293 [5]) was > 20 µM (inactive). For the same molecule, the IC50 [6] was 1.99 µM (active), the IC50 [7] was 6.36 µM (active) and the AC50 (Caspase-6) was 1.38 µM (active). For the same molecule, the IC50 [8] was 9.18 µM (active), the IC50 (HEK293 [9]) was > 20 µM (inactive) and the IC50 [10] was 1.55 µM (active). The IC50 [11] was 2.94 µM (active), the EC50 [12] was 2.94 µM (active) and the IC50 [13] was 1.56 µM (active).

Cc1ccc(-c2cc(C(=O)Nc3ccc(S(=O)(=O)Nc4onc(C)c4C)cc3)c3ccccc3n2)cc1 was tested, and the IC50 [14] was 20.1 µM (active) and the IC50 [15] was 5.56 µM (active).
